Data published in patent publication US9833439B2, “ERK inhibitors for use in treating spinal muscular atrophy” (UNIVERSITE PARIS DESCARTES, priority 2011, dated 2017).

How the values were obtained:
SMN protein = type: in vivo, mice; conditions: oral treatment
SMA-like mice [1] = test: Life span of severe SMA-like mice; type: in vivo; conditions: oral treatment
SMA-like mice [2] = test: Body weight of SMA-like mice; type: in vivo; conditions: oral treatment
Method: The knockout-transgenic SMA-like mice (Smn^−/−, SMN2^+/+) were purchased from the Jackson Laboratory (Bar Harbor, Me.) and genotyped as previously described^15. […] The control mice were heterozygous knock-out for Smn with the human SMN2 transgene (Smn^−/+, to SMN2^+/+). […] These mice were compared to control and SMA-like mice either injected from P1 with 0.5 μl/g of 0.9% NaCl 1% DMSO dyed in blue Evans or orally treated with 2 μl/g of 0.9% NaCl 1% DMSO. Body weight and life span recordings were performed every day until the death of the animal. The animals were considered as dead when mice were no longer able to stand up 20 sec after having been placed on their sides.

AKT = conditions: SMA mice, oral treatment
[3] = system: SMN2 promoter CRE sites 1 and 2; test: ChIP of Phospho-Elk-1 and Phospho-CREB on SMN2 promoter CRE sites in ventral lumbar spinal cord; type: in vivo, mice; conditions: SMA spinal cords, intrathecal NMDA
Source text: The knockout-transgenic SMA-like mice (Smn^−/−, SMN2^+/+) were purchased from the Jackson Laboratory (Bar Harbor, Me.) and genotyped as previously described^15. Vehicle-treated group, NMDA-treated group, U0126-treated group and AZD6244-treated group of type 1 SMA-like mice were randomly constituted in a blind systematic manner to minimize bias. The control mice were heterozygous knock-out for Smn with the human SMN2 transgene (Smn^−/+, to SMN2^+/+).
In order to evaluate phospho-Elk-1 and phospho-CREB role on Smn2 promoter, P1 neonatal control and SMA-like mice, were either injected intrathecally with 5 pmol of N-methyl-D-aspartic Acid 100 μM (NMDA, Sigma, Saint Quentin Fallavier, France) in 0.5 μl/g of 0.9% NaCl dyed in blue Evans per gram. […]
Ventral lumbar Spinal Cord samples were chopped into small pieces with a scalpel and were fixed for 15 min with 1% formaldehyde. […] Lysates were cleared by centrifugation and DNA concentration was determined using a nanodrop spectrophotometer. […]
Quantitative real time PCR was performed with standard protocols using SYBR®Green ROX Mix (ABgene, Courtaboeuf, France) as a fluorescent detection dye in ABI PRISM® 7000 in a final volume of 10 μl which also contains 300 nM of primers (Operon, Cologne, Germany)
The relative amounts of DNA in samples were determined on the basis of the threshold cycle for each PCR product (Ct).

SMN transcripts = conditions: very severe SMA-like mice; splicing pattern not modified; cited from earlier work

Cn1cnc2c(F)c(Nc3ccc(Br)cc3Cl)c(C(=O)NOCCO)cc21 [Selumetinib, 6-(4-bromo-2-chloroanilino)-7-fluoro-N-(2-hydroxyethoxy)-3-methylbenzimidazole-5-carboxamide]
SMN expression in the spinal cord of SMA mice (SMN protein): activation | life span of SMA mice (SMA-like mice [1]): remarkable increase | body weight (SMA-like mice [2]): progressive gain | AKT activation (AKT): activation

CN[C@H](CC(=O)O)C(=O)O [NMDA, N-methyl-D-aspartic Acid]
ratio of CREB and Elk-1 binding on the CRE sites [3]: completely reversed | total amount of SMN transcripts in the SMA spinal cord (SMN transcripts): increased
